Where a name gives a salt, the structure may show the parent alone. Calls of active or inactive are those of the source. Cut-off read from the data, not from the text of the source, for most assays here: actives have a measured Kd and inactives only a lower limit.
Columns and labels:
[1] = molecular target: Eukaryotic translation initiation factor 2-alpha kinase 1 (Homo sapiens, UniProt Q9BQI3)
Ephrin type-B receptor 6 = molecular target: T1, Ephrin type-B receptor 6 (Homo sapiens, UniProt O15197)
T1 sequence (O15197 whole entry): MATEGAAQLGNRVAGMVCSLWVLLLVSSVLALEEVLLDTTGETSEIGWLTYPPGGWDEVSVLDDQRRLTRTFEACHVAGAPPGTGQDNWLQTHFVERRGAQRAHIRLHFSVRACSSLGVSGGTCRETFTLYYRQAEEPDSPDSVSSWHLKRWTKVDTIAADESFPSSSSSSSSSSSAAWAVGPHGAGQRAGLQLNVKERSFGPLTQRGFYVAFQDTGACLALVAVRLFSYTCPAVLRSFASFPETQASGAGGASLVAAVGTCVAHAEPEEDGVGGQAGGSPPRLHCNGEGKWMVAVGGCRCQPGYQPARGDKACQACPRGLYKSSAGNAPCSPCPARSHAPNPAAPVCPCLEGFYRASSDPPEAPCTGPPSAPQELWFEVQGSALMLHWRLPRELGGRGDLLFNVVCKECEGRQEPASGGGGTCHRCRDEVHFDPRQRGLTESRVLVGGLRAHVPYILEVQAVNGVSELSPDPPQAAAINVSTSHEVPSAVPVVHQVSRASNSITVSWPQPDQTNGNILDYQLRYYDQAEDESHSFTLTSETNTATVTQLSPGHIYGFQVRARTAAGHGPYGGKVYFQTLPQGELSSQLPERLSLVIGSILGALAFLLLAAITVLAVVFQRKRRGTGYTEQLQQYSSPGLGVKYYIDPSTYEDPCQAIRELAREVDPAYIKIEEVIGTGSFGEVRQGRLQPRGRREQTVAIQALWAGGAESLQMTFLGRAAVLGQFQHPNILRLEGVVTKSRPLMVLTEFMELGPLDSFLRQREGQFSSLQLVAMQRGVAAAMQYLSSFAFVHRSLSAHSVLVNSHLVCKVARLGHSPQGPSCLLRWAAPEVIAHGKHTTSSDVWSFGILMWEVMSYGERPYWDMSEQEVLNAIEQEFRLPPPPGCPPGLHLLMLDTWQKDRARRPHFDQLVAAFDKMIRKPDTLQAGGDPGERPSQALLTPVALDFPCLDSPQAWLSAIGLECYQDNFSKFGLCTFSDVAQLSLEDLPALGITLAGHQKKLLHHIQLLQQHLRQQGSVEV

[2] = molecular target: T2, Serine/threonine-protein kinase D2 (Homo sapiens, UniProt Q9BZL6)
T2 sequence (Q9BZL6 whole entry): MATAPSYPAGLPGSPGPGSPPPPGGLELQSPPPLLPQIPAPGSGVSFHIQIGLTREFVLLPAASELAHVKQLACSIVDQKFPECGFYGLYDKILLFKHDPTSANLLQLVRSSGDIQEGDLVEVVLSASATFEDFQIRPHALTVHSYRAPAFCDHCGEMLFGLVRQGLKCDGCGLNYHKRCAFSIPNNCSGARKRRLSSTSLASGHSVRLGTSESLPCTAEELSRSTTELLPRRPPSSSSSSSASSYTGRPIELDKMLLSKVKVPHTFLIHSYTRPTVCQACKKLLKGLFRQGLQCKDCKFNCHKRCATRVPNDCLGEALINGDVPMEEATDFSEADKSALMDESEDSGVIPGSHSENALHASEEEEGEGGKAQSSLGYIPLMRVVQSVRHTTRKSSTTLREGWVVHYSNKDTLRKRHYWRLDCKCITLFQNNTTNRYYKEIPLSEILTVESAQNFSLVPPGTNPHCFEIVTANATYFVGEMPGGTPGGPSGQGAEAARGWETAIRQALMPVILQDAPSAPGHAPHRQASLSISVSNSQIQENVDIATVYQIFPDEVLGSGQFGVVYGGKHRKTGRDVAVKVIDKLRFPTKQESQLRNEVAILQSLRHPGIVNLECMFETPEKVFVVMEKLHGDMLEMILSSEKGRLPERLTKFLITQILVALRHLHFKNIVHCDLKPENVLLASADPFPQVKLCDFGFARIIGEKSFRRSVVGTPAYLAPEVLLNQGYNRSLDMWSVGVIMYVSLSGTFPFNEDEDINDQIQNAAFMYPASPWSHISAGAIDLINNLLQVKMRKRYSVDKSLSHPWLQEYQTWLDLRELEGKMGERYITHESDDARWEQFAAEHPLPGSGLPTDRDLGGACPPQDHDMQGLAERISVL

[3] = molecular target: T3, EKC/KEOPS complex subunit TP53RK (Homo sapiens, UniProt Q96S44)
T3 sequence (Q96S44 whole entry): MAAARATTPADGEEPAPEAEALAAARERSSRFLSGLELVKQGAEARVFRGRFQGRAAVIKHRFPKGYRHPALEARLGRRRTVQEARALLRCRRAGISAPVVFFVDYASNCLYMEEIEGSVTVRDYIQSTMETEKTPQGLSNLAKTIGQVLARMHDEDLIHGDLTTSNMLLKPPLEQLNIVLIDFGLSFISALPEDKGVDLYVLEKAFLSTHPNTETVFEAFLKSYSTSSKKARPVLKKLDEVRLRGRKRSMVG

[4] = molecular target: T4, ATP-dependent RNA helicase DDX1 (Homo sapiens, UniProt Q92499)
T4 sequence (Q92499 whole entry): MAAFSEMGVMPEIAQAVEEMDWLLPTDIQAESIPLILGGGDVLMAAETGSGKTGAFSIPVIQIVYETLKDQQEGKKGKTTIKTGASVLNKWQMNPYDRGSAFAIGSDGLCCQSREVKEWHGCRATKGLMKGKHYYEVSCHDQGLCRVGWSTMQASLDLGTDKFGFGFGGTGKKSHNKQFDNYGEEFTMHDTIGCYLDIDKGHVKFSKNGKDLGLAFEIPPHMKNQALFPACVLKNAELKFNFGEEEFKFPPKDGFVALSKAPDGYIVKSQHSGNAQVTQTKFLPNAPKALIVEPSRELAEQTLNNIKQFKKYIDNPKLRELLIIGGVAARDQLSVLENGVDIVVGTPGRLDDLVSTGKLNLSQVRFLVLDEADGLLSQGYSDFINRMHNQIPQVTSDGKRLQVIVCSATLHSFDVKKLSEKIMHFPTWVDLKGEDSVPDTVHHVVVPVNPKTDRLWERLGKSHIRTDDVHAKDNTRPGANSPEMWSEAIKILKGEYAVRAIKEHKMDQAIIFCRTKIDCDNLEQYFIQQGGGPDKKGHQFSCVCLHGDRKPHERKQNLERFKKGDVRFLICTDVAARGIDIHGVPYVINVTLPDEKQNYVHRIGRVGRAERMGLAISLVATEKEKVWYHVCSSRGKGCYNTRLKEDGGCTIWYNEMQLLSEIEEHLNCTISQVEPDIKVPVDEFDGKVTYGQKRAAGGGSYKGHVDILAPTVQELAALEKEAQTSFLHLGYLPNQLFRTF

Obg-like ATPase 1 = Obg-like ATPase 1 (Homo sapiens, UniProt Q9NTK5)
Obg-like ATPase 1, sequence (Q9NTK5 whole entry, looked up): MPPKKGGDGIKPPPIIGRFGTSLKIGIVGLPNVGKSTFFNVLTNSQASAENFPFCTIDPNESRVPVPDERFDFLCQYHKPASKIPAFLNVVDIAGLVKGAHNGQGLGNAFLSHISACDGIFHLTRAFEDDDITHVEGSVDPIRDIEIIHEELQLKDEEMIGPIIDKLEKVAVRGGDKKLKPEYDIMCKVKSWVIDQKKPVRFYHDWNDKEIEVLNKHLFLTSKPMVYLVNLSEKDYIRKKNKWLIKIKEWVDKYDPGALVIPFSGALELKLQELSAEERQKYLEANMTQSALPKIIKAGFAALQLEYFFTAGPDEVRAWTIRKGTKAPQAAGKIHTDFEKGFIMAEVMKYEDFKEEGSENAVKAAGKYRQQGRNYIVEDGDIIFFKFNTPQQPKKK
Note: in the data inactive means no Kd found up to 30 µM.

Eukaryotic translation initiation factor 2-alpha kinase 1, sequence (Q9BQI3 whole entry): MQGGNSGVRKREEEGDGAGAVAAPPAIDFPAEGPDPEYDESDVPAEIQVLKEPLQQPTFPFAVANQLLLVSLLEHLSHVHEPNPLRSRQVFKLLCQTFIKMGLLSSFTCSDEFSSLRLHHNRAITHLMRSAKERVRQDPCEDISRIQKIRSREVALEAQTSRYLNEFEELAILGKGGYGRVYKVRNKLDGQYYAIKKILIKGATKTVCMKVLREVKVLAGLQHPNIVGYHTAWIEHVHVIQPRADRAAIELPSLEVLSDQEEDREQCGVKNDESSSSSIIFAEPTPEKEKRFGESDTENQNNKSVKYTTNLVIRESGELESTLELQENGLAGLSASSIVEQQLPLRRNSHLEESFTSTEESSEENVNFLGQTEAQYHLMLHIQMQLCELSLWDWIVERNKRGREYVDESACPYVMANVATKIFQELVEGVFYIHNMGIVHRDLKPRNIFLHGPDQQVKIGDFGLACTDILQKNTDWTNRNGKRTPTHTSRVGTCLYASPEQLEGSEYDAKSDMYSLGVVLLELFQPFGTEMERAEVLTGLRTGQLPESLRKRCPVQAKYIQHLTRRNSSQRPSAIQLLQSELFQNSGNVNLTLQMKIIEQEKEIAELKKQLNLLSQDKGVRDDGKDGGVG

| Kd [1] | Kd (Ephrin type-B receptor 6) | Kd [2] | Kd [3] | Kd [4] | Kd (Obg-like ATPase 1) | SMILES |
| --- | --- | --- | --- | --- | --- | --- |
| > 30 µM (inactive) | > 30 µM (inactive) | > 30 µM (inactive) | > 30 µM (inactive) |  |  | C[C@@H](Oc1cc(C(=O)Nc2ccc(C(=O)N3CCN(C)CC3)cc2)nnc1N)c1c(Cl)ccc(F)c1Cl |
| > 30 µM (inactive) | > 30 µM (inactive) | 3.7 µM (active) | > 30 µM (inactive) | > 30 µM (inactive) |  | C[C@H]1CNCCCN1S(=O)(=O)c1cccc2cncc(F)c12 |
| > 30 µM (inactive) | > 30 µM (inactive) | > 30 µM (inactive) | > 30 µM (inactive) | > 30 µM (inactive) |  | Nc1ncnc2c1c(-c1cccc(OCc3ccccc3)c1)cn2[C@H]1C[C@@H](CN2CCC2)C1 [AEW-541] |
| > 30 µM (inactive) | > 30 µM (inactive) |  | > 30 µM (inactive) | > 30 µM (inactive) | > 30 µM (inactive) | COc1cc(Nc2ncc3c(n2)-c2ccc(Cl)cc2C(c2c(F)cccc2OC)=NC3)ccc1C(=O)O [ALISERTIB] |
| > 30 µM (inactive) | 0.012 µM (active) |  | > 30 µM (inactive) | > 30 µM (inactive) | > 30 µM (inactive) | O=C(Nc1c[nH]nc1-c1nc2cc(CN3CCOCC3)ccc2[nH]1)NC1CC1 [AT-9283] |
| > 30 µM (inactive) | > 30 µM (inactive) | > 30 µM (inactive) | > 30 µM (inactive) | > 30 µM (inactive) |  | Cc1cc(Nc2ncc(Cl)c(Nc3ccccc3S(=O)(=O)C(C)C)n2)c(OC(C)C)cc1C1CCNCC1 [CERITINIB] |
| 3.72 µM | > 30 µM (inactive) | 1.21 µM (active) | > 30 µM (inactive) | > 30 µM (inactive) |  | CCS(=O)(=O)N1CCN(c2ccc(Nc3ncc(C(N)=O)c(NC4CC4)n3)cc2)CC1 [Cerdulatinib Hydrochloride] |
|  |  |  | > 30 µM (inactive) | > 30 µM (inactive) | > 30 µM (inactive) | C[C@@H](Oc1cc(-n2cnc3ccc(CN4CCN(C)CC4)cc32)sc1C(N)=O)c1ccccc1C(F)(F)F [GSK-461364] |
| > 30 µM (inactive) | 3.77 µM (active) |  | > 30 µM (inactive) | > 30 µM (inactive) |  | CCn1cc(-c2ccnc3[nH]c(-c4cccc(CN(C)C)c4)cc23)c(-c2ccc(NC(=O)N(C)C)cc2)n1 [GSK-1070916] |
| > 30 µM (inactive) | > 30 µM (inactive) | 0.143 µM (active) | > 30 µM (inactive) |  |  | CNC(=O)c1nn(C)c2c1C(C)(C)Cc1cnc(Nc3ccc(N4CCN(C)CC4)cc3)nc1-2 [MILCICLIB] |
|  |  |  | > 30 µM (inactive) | > 30 µM (inactive) |  | N#CC[C@H](C1CCCC1)n1cc(-c2ncnc3[nH]ccc23)cn1 [RUXOLITINIB] |
|  | 0.026 µM (active) | 1.37 µM (active) | > 30 µM (inactive) | > 30 µM (inactive) |  | CC(C)c1cc(CNc2nc(Nc3cc(C4CC4)[nH]n3)cc(N3CCN(C)CC3)n2)on1 [XL-228] |

More lines, now with the values behind:

| SMILES | Kd [1] | Kd (Ephrin type-B receptor 6) | Kd [2] | Kd [3] | Kd [4] | Kd (Obg-like ATPase 1) |
| --- | --- | --- | --- | --- | --- | --- |
| CNC(=O)c1ccccc1Sc1ccc2c(/C=C/c3ccccn3)n[nH]c2c1 [AXITINIB] |  |  |  | > 30 µM (inactive) | > 30 µM (inactive) | > 30 µM (inactive) |
| Cn1cc(C2=C(c3cn(C4CCN(Cc5ccccn5)CC4)c4ccccc34)C(=O)NC2=O)c2ccccc21 [ENZASTAURIN] |  |  |  | > 30 µM (inactive) | > 30 µM (inactive) |  |
| O=C(Nc1cc(C(F)(F)F)cc(C(F)(F)F)c1)c1cc(Cl)ccc1O [IMD-0354] | > 30 µM (inactive) | > 30 µM (inactive) |  | > 30 µM (inactive) | > 30 µM (inactive) |  |
| FC(F)(F)c1ccc(/C=C/c2nc(COc3ccc(CCCCn4ccnn4)cc3)co2)cc1 [MUBRITINIB] | > 30 µM (inactive) | > 30 µM (inactive) | > 30 µM (inactive) | > 30 µM (inactive) | > 30 µM (inactive) |  |
| Cc1[nH]c(/C=C2\C(=O)Nc3ccccc32)c(C)c1CCC(=O)O [ORANTINIB] | > 30 µM (inactive) |  |  | > 30 µM (inactive) | > 30 µM (inactive) |  |
| NC(=O)c1c(OCc2c(F)cc(Br)cc2F)nsc1NC(=O)NCCCCN1CCCC1 [OSI-632] | 3.57 µM (active) | 0.226 µM (active) |  | > 30 µM (inactive) |  |  |
| Cc1nc(Nc2n[nH]c3c2CN(C(=O)N[C@H](CN(C)C)c2ccccc2)C3(C)C)c2sccc2n1 [PF-03758309] | > 30 µM (inactive) | > 30 µM (inactive) |  | > 30 µM (inactive) | > 30 µM (inactive) | > 30 µM (inactive) |
| CO[C@H]1C[C@@H]2CC[C@@H](C)[C@@](O)(O2)C(=O)C(=O)N2CCCC[C@H]2C(=O)O[C@H]([C@H](C)C[C@@H]2CC[C@@H](OP(C)(C)=O)[C@H](OC)C2)CC(=O)[C@H](C)/C=C(\C)[C@@H](O)[C@@H](OC)C(=O)[C@H](C)C[C@H](C)/C=C/C=C/C=C/1C [RIDAFOROLIMUS] | > 30 µM (inactive) | > 30 µM (inactive) | > 30 µM (inactive) | > 30 µM (inactive) | > 30 µM (inactive) |  |
| O=C(NOCCO)c1cc(CN2OCCCC2=O)c(F)c(F)c1Nc1ccc(I)cc1F [RO-4987655] |  |  |  | > 30 µM (inactive) | > 30 µM (inactive) | > 30 µM (inactive) |
| CN1CCN(CCOc2cc(OC3CCOCC3)c3c(Nc4c(Cl)ccc5c4OCO5)ncnc3c2)CC1 [SARACATINIB] | > 30 µM (inactive) | 3.6 µM (active) | > 30 µM (inactive) | > 30 µM (inactive) | > 30 µM (inactive) |  |
| CN1C/C=C/CCOc2cccc(c2)-c2ccnc(n2)Nc2cccc(c2)C1 [ZOTIRACICLIB] | > 30 µM (inactive) | > 30 µM (inactive) | 0.474 µM (active) | > 30 µM (inactive) | > 30 µM (inactive) |  |
